This test deals with Transduced P19 cells. Nature of the test: Epigenetic effector experiments: rescue of GFP expression in silenced transduced cells. In kind it is cell-based, mouse. The protocol: GFP expression is rescued by treatment with DNA methylation inhibitor 5-aza-cytidine (5-aza) in day 18 UCOE-RSV cells from the lentiviral silencing experiment. Cells were replica plated at day 16, specified concentrations of 5-aza were introduced 24 hours later (with exception of control), and cells were passaged and assayed via flow cytometry 24 hours after chemical introduction for % GFP+ cells. Data is reported as mean±SD from three biological replicates.
GFP expression is rescued by treatment with HDAC inhibitor trichostatin A (TSA) in day 24 UCOE-RSV cells from the lentiviral silencing experiment. Cells were replica plated at day 22, specified concentrations of TSA were introduced 24 hours later (with exception of control), and cells were passaged and assayed via flow cytometry 24 hours after chemical introduction for % GFP+ cells. Data is reported as mean f SD from three biological replicates.
Cells were replica plated at day 16, specified concentrations of 5-aza were introduced 24 hours later (with exception of control), and cells were passaged and assayed via flow cytometry 24 hours after chemical introduction for % GFP+ cells. Data is reported as mean±SD from three biological replicates. In the graph, data is shown from left to right for each construct: no treatment, 2 μM 5-aza, 10 μM 5-aza. […] Cells were replica plated at day 22, specified concentrations of TSA were introduced 24 hours later (with exception of control), and cells were passaged and assayed via flow cytometry 24 hours after chemical introduction for % GFP+ cells. Data is reported as mean f SD from three biological replicates. In the graph, data is shown from left to right for each construct: no treatment, 0.05 μM TSA, 0.1 μM TSA. […] Cells were replica plated at day 19, treated with 0.1 μM TSA or 10 μM 5-aza (with exception of control) 24 hours later, and cells were passaged and assayed via flow cytometry 24 hours after chemical introduction for % GFP+ cells. Data is reported as mean f SD from three biological replicates. In the graphs for FIG. 6C and FIG. 6D, the data is shown from left to right for each construct: no treatment, 0.1 μM TSA, 10 μM 5-aza.
Replica-plated cell populations were treated with varying concentrations of 5-aza-2′-deoxycytidine (Sigma-Aldrich, A3656) or Trichostatin A (Sigma-Aldrich, T1952) 24 hours after passaging. TSA was purchased as a readymade 5 mM solution in DMSO, which was then diluted to a 0.05 μM or 0.1 μM concentration in P19 growth media. 5 mg of 5-aza-2′-deoxycytidine was dissolved in 1 mL of 1:1 acetic acid: water to make a 21.9 mM stock solution, which was then diluted in P19 growth media to 2 μM or 10 μM. Cells were assayed through flow cytometry after 24 hours. […]

The structures appear in SMILES notation.

With `CC(/C=C/C(=O)NO)=C\[C@@H](C)C(=O)c1ccc(N(C)C)cc1` [TSA, trichostatin A], for the setting “all examined populations, range of concentrations”, the “reactivation of GFP expression” value is listed as “dose-dependent recovery of GFP expression”. Besides, where the note is “highest dose of TSA, RSV promoter-only construct, day 24 cells, 24 h treatment”, the silenced cells rescued result is “about 25%”.

Source of the values: patent US12611470B2, “Chromatin-opening element for stable long term gene expression” (CZ Biohub SF, LLC, priority 2019, dated 2026).
